Our source for the Ratio IC50 and IC50 values is ChEMBL document CHEMBL4033665, “Synthesis and applications of benzohydroxamic acid-based histone deacetylase inhibitors” (Eur J Med Chem, 2017).

Broadly, the IC50 is the concentration needed to halve the response being measured. Higher therefore signals a need for much substance.

Each structure is given as a SMILES string.

The species entered for assay [1] is Homo sapiens. As to the kind of experiment: Selectivity index, ratio of IC50 for human HDAC3 to IC50 for human HDAC6.
The species named for assay [2] is Homo sapiens. As to the kind of experiment: Selectivity index, ratio of IC50 for human HDAC2 to IC50 for human HDAC6.
The target of assay [3] is T1, Polyamine deacetylase HDAC10 (Homo sapiens, UniProt Q969S8).
T1 sequence (Q969S8 whole entry): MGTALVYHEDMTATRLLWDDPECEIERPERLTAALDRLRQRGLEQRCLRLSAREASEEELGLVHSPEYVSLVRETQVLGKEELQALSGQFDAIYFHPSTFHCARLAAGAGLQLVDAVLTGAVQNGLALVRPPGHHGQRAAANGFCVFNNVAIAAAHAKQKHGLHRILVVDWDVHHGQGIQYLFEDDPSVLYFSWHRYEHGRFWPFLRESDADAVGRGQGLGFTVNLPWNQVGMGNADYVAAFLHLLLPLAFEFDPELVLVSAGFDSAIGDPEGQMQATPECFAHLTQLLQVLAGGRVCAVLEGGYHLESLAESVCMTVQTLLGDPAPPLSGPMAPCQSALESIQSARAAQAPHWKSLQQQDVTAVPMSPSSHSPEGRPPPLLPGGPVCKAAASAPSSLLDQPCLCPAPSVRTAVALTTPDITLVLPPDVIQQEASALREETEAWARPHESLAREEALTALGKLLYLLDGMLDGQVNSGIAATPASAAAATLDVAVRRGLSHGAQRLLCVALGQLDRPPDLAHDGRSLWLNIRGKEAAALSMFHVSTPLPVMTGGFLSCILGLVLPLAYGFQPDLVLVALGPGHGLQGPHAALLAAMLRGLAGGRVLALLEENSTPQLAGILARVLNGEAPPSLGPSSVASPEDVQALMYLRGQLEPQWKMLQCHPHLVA
The experiment in a line: Inhibition of human HDAC10 after 15 mins by trypsin-coupled fluorescence assay.

For assay [4], the species on record is Homo sapiens. The experiment in a line: Selectivity index, ratio of IC50 for human HDAC5 to IC50 for human HDAC6.
For another assay, the target named is Histone deacetylase 9 (Homo sapiens, UniProt Q9UKV0). The experiment in a line: Inhibition of human HDAC9 after 15 mins by trypsin-coupled fluorescence assay.
Sequence of Histone deacetylase 9 (Q9UKV0 whole entry): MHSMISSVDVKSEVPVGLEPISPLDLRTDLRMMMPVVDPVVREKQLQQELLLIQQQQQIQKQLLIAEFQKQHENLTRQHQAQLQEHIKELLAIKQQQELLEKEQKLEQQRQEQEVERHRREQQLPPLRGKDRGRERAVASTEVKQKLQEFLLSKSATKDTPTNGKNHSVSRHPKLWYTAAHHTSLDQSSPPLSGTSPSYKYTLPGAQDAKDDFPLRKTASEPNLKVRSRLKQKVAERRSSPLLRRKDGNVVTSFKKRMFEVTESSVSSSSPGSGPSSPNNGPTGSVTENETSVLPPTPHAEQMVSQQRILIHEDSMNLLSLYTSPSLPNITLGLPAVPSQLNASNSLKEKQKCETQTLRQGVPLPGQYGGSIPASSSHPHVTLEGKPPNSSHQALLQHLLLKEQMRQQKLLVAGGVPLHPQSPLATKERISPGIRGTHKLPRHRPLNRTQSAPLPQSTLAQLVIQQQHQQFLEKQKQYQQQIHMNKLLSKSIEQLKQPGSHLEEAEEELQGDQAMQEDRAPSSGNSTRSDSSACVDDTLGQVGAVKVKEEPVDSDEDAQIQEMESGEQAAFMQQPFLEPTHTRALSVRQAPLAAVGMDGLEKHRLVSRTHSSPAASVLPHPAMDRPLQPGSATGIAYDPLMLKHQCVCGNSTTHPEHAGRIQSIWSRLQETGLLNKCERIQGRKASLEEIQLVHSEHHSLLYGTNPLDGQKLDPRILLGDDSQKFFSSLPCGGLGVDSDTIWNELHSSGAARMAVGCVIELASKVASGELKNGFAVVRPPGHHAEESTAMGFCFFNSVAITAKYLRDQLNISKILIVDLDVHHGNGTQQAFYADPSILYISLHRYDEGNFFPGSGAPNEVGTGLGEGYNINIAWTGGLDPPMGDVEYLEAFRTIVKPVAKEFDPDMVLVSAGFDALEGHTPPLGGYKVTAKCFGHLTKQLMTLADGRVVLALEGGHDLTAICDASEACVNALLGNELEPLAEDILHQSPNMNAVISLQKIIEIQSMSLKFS
For assay [5], the species on record is Homo sapiens. As to the kind of experiment: Selectivity index, ratio of IC50 for human HDAC8 to IC50 for human HDAC6.
The target in the next assay is T2, Histone deacetylase 7 (Homo sapiens, UniProt Q8WUI4).
T2 sequence (Q8WUI4 whole entry): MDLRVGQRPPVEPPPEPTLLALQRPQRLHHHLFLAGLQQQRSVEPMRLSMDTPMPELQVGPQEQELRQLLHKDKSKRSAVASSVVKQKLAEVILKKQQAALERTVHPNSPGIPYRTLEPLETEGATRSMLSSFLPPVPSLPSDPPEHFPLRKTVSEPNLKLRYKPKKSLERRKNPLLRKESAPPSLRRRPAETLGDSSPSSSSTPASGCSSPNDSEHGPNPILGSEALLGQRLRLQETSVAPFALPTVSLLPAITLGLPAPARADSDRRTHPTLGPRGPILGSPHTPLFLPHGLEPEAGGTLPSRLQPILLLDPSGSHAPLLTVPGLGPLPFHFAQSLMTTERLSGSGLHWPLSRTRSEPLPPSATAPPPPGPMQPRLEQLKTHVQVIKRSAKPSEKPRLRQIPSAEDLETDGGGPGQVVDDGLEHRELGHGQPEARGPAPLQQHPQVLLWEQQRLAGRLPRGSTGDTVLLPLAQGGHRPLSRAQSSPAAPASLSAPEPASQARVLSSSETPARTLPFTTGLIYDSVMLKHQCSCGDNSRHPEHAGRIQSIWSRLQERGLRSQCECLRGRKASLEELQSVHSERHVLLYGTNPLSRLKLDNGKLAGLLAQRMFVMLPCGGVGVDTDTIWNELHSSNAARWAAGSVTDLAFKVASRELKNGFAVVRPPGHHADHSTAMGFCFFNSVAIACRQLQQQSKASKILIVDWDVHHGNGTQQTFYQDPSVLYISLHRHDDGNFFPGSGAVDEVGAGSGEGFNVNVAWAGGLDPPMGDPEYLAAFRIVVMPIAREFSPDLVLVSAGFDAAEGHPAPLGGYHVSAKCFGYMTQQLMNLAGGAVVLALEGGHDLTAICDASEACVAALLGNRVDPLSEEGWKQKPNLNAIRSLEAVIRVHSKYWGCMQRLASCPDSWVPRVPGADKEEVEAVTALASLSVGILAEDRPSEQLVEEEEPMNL
As to the kind of experiment: Inhibition of human HDAC7 after 15 mins by trypsin-coupled fluorescence assay.

Turning to `O=C(NO)c1ccc(CN(CCO)C(=O)Cc2ccccc2)cc1`, the Ratio IC50 in the assay listed under Homo sapiens [1], in the assay filed under Homo sapiens [2], in the assay listed under Homo sapiens [4] and in the assay filed under Homo sapiens [5] was 15 to 400 in each case. The concentration for half-maximal inhibition (IC50) is 700 nM in assay [3], 5.3 µM on Histone deacetylase 9 and 1100 nM against Histone deacetylase 7.
